Experimental findings from PubChem BioAssay (NCI) are described below.

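Tested at 5 concentrations; 48 h exposure; 96-well plates; endpoints linearly interpolated, else capped at highest concentration. The concentration for 50% growth inhibition is given as GI50. TGI marks complete inhibition of growth.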

Test systems include MDA-N; DLD-1 colon; LXFL 529 NSCLC; SNB-78 CNS; KM20L2 colon; RXF-631 renal; HOP-18 NSCLC; XF 498 CNS; DMS 114 small cell lung.
What all share (assay): NCI-60 cell line screen, 48 h

Regarding `Cn1c(=O)c2[nH]c(SCCN3CCOCC3)nc2n(C)c1=S`, the TGI in the experiment with MDA-N is above 100 µM.
For the molecule `C#CCNC(=O)ON1C(=O)CCC1=O`, the TGI in the experiment with DLD-1 colon, in the experiment with LXFL 529 NSCLC, with SNB-78 CNS, with KM20L2 colon, in the experiment on RXF-631 renal and in the experiment with HOP-18 NSCLC was above 100 µM throughout.
As for `CN(C)/C=N\c1ccnc(=O)[nH]1`, the TGI in the experiment on DLD-1 colon, in the experiment on LXFL 529 NSCLC, with SNB-78 CNS, in the experiment on KM20L2 colon, with XF 498 CNS and in the experiment on RXF-631 renal was above 100 µM in each case. Further, the TGI in the experiment on DMS 114 small cell lung and in the experiment with HOP-18 NSCLC was above 100 µM throughout.
With `C[Si](C)(c1ccc(C(=O)O)cc1)c1ccc(C(=O)O)cc1`, the TGI in the experiment with MDA-N is above 100 µM.
As to `N#C/C(=C\c1cccc(O)c1O)C(N)=O`, the TGI is above 100 µM in the experiment with DLD-1 colon; above 100 µM in the experiment with LXFL 529 NSCLC; above 100 µM with SNB-78 CNS; above 100 µM in the experiment on KM20L2 colon; 95.6 µM with XF 498 CNS; above 100 µM in the experiment on RXF-631 renal. Also, the TGI in the experiment with DMS 114 small cell lung is above 100 µM.
As for `Cc1c(C(=O)/C=C/C=C/c2ccccc2)[n+](=O)c2ccccc2n1[O-]`, the TGI was 29 µM in the experiment on DLD-1 colon; 51.2 µM with LXFL 529 NSCLC; above 100 µM in the experiment on SNB-78 CNS; above 100 µM with KM20L2 colon; 95.3 µM in the experiment on XF 498 CNS; above 100 µM with DMS 114 small cell lung. Also, in the experiment on HOP-18 NSCLC, the TGI was above 100 µM.
As for `Cl/C(N=Nc1ccccc1)=N/Nc1ccccc1`, the TGI in the experiment on LXFL 529 NSCLC, in the experiment with SNB-78 CNS, with KM20L2 colon, in the experiment on XF 498 CNS, in the experiment with RXF-631 renal and with HOP-18 NSCLC was above 100 µM throughout.
As to `CCc1cccc(C)c1N1C(=O)C(=O)C(c2nc3ccccc3o2)C(=O)C1=O`, the TGI in the experiment with DLD-1 colon, in the experiment with LXFL 529 NSCLC, in the experiment with SNB-78 CNS, in the experiment on KM20L2 colon, in the experiment with XF 498 CNS and with HOP-18 NSCLC was above 100 µM throughout.
Take `COc1ccc(OC(C(=O)O)C(C)C)c2c1CCCC2=O` (stereo not drawn): the TGI in the experiment with DLD-1 colon, in the experiment on LXFL 529 NSCLC, with SNB-78 CNS, in the experiment on KM20L2 colon, in the experiment with XF 498 CNS and in the experiment on RXF-631 renal was above 100 µM each time. In addition, the TGI in the experiment with DMS 114 small cell lung and in the experiment on HOP-18 NSCLC was above 100 µM each time.
Take `O=C1OC(c2ccccc2)=N/C1=C\c1ccc(Oc2ccc(Cl)c(Cl)c2)cc1`: the TGI in the experiment on DLD-1 colon is above 100 µM; with LXFL 529 NSCLC, 85.6 µM; in the experiment with SNB-78 CNS it was 85.7 µM; in the experiment with KM20L2 colon, above 100 µM; in the experiment with DMS 114 small cell lung, 35.6 µM; in the experiment with HOP-18 NSCLC, above 100 µM.
For `O=[N+]([O-])c1nccn1CC(O)CN1CCCCC1` (stereo not drawn), the TGI in the experiment on MDA-N was above 100 µM.
For the molecule `Cc1c2c(cc3c1C(=O)C(=O)C1=C3OC[C@@H]1C)C(C)(C)CCC2`, the TGI came out at 59.5 µM in the experiment with DLD-1 colon; 37.6 µM with LXFL 529 NSCLC; 44.5 µM with KM20L2 colon; 55.7 µM in the experiment on XF 498 CNS; 31.9 µM in the experiment with DMS 114 small cell lung; 32.3 µM with HOP-18 NSCLC.
In the case of `O=C(O)c1cc(=O)c2c([nH]c3ccccc32)s1`, the TGI in the experiment with DLD-1 colon, in the experiment on LXFL 529 NSCLC, with SNB-78 CNS, in the experiment on KM20L2 colon, in the experiment on XF 498 CNS and in the experiment with RXF-631 renal was above 100 µM each time. Besides, the TGI with DMS 114 small cell lung was above 100 µM.
In turn, `O=[N+]([O-])c1cccc(-c2nc(-c3ccccc3)c(-c3ccccc3)[nH]2)c1` showed a TGI in the experiment with MDA-N above 100 µM.
Regarding `[O-]c1ccccc1C=Nc1ccc2c(c1)CCC2.[O-]c1ccccc1C=Nc1ccc2c(c1)CCC2.[O]=[U+2]=[O]`, the GI50 is 27.8 µM in the experiment on DLD-1 colon; 28.4 µM in the experiment with LXFL 529 NSCLC; above 100 µM in the experiment with SNB-78 CNS; 56.6 µM in the experiment with KM20L2 colon; above 100 µM with XF 498 CNS; above 100 µM in the experiment on RXF-631 renal. Further, the GI50 is 7.05 µM in the experiment on DMS 114 small cell lung and 8.74 µM in the experiment on HOP-18 NSCLC. The TGI in the experiment on DLD-1 colon, with LXFL 529 NSCLC, with SNB-78 CNS, with KM20L2 colon, with XF 498 CNS and in the experiment with RXF-631 renal was above 100 µM each time. Besides, the TGI in the experiment on DMS 114 small cell lung and in the experiment with HOP-18 NSCLC was above 100 µM each time.
`O=c1nc(-c2ccccc2)cc(CC(O)c2ccc(Cl)c(Cl)c2)[nH]1` (stereo not drawn): the TGI in the experiment on DLD-1 colon, in the experiment on LXFL 529 NSCLC, in the experiment on KM20L2 colon, in the experiment on DMS 114 small cell lung and with HOP-18 NSCLC was above 100 µM each time.
`O=C(O)/C=C\C(=O)Nc1ccccn1` had a TGI in the experiment on MDA-N above 100 µM.
For `C[Si](C)(C)C(CCCCSc1ccccc1)(Sc1ccccc1)Sc1ccccc1`, the TGI in the experiment on DLD-1 colon, in the experiment with LXFL 529 NSCLC, in the experiment with SNB-78 CNS, in the experiment on XF 498 CNS, with RXF-631 renal and with DMS 114 small cell lung was above 100 µM each time.
Molecule `CCc1ccccc1NC(=O)/C=C/c1ccccc1` registered a TGI in the experiment on MDA-N above 100 µM.
Consider `COC(=O)CCC12CCC(=O)C1[C@@H](C(=O)OC)C[C@H]2C(=O)OC` (stereo partly drawn), for which the TGI with DLD-1 colon, with LXFL 529 NSCLC, in the experiment on SNB-78 CNS, with KM20L2 colon, with XF 498 CNS and with RXF-631 renal was above 100 µM in each case. Further, the TGI with DMS 114 small cell lung and with HOP-18 NSCLC was above 100 µM in each case.
